In patent publication US5763485A, “Method of treating catabolic, gut-associated pathological processes and impaired host defenses” (Brigham and Women's Hospital, priority 1995, dated 1998):
Residues, ends and D or L forms follow the SMILES beside them.

Experiments:
[1] = Parenteral nutrition after 5-FU injury in rats: intestinal and hematological indices; format: in vivo; conditions: all drug-treated animals, independent of diet
Method: Rats were catheterized as previously described and after a minimum of 3 hr following recovery from anesthesia, groups of animals received 100, 150 or 200 mg/kg of 5-FU by i.p. injection. […] The nutrition infusion, started 4 hr after 5-FU or saline, was continued for 4 d. at a rate of 46 ml/24 hr.
Blood and intestinal tissue were sampled and prepared for analysis as described in the examples above. The hemoglobin, white blood cell and platelet numbers were determined as measures of the general hematological toxicity of the various doses of 5-FU.
All analyses were performed as previously described in Examples 6 and 7. Statistical analyses were performed using two-way analysis of variance comparing both diets and dose of 5-FU. Unpaired t tests were used to compare two treatment groups at one dose of 5-FU. Differences were considered statistically significant at a p value of <0.05.

[2] = rat
Method: Lactulose is a non-metabolizable sugar that is poorly absorbed from the gastrointestinal tract. In gastrointestinal disorders such as inflammatory bowel disease, lactulose is taken up through gaps in the mucosal membrane, allowing its excretion in the urine. The amount of urinary lactulose is therefore a measure of "leakage" across the gut mucosal barrier (Menzies, Biochem. Soc. Trans. […]:1042-1047 (1974)).
Rats were treated with 5-fluorouracil as described in Example 8, above. Lactulose, 2 ml iso-osmolar solution of 100 mg/ml, was infused by gavage and urine was collected over the subsequent 24 hr and frozen. Urinary lactulose was determined enzymatically as described by Ziegler et al. (Arch. Surg. 123:1313-1319 (1988)).

[3] = Urinary excretion and nitrogen balance after laparotomy in dogs; format: in vivo, dog; conditions: projected intake 0.312 gm N/24 hr/kg
Method: Urine excreted during the 24 hours of infusion was collected in the closed urinary collecting system and stored in acidified, refrigerated containers. Aliquots were stored frozen at -20° C. for batch analysis.
All solutions were infused at the rate of 4 ml/minute/kg. Five control animals received 0.9% saline. Amino acid solutions (Table V) containing BCCA's at three different concentrations (11%, 22%, or 44% of total amino acids) were prepared by adding amino acids to an 8.5% standard amino acid formula, FreAmine III (American McGaw, Irvine, Calif.). The total BCAA infusion rates were 0.46, 0.92, and 1.84 grams/24 hours/kg, respectively. All three amino acid solutions were isonitrogenous, providing approximately 0.624 grams of nitrogen/24 hours/kg, with a constant ratio of valine to leucine to isoleucine (1: 1.38:1.05). Nine animals received an 11% BCAA solution which was made by dissolving a mixture of non-essential amino acids (NEAA) in 2.13% FreAmine III to make a solution that provided 0.624 grams of nitrogen/24 hours/kg. […] Six animals received 4.25% FreAmine III alone (22% BCAA). The final seven animals received 2.13% FreAmine III supplemented with enough BCAA's to make a 44% solution. […] All solutions were sterilized by passage through a 0.22 uM filter (Millipore, Millis, Mass.) and stored overnight at 4° C. prior to administration. […]

[4] = intravenous feeding regimen; cited from earlier work

In the case of O=c1[nH]cc(F)c(=O)[nH]1 [5-FU, 5-fluorouracil], the “Circulating white blood cell and platelet counts” value [1] is reported as “marked decline in the circulating white blood cell and platelet counts”, the “Gut permeability to lactulose” value [2] is reported as “increase gut permeability to lactulose” and the “Time of peak increase in gut permeability” value [2] is reported as “between 24 and 48”.
NC(=O)CC[C@H](N)C(=O)O [Glutamine, glutamine] gave a Nitrogen balance [3] of -0.386 ± 0.086 gm/24 hr/kg and a Nitrogen excretion [3] of 0.709 ± 0.085 gm/24 hr/kg.
For C[C@H](N)C(=O)N[C@@H](CCC(N)=O)C(=O)O [L-alanyl-L-glutamine] (H-Ala-Gln-OH), the Postoperative nitrogen balance [4] is given as “improve postoperative nitrogen balance”.
